Marks after values point to notes of the source that are not given here. Square brackets hold non-standard residues; d marks the D form. Peptide text beside a SMILES is read from it. * marks the point of attachment. Phe(4-Cl) = N[C@@H](Cc1ccc(Cl)cc1)C(=O)O; hArg = N=C(N)NCCCC[C@H](N)C(=O)O; Nle = CCCC[C@H](N)C(=O)O; Abu = CC[C@H](N)C(=O)O; PhAc = O=C(Cc1ccccc1)*
Assays:
[1] = molecular target: T1, rat pituitary GH-RH receptors (Rattus norvegicus, UniProt Q02644); experiment: GH-RH radioreceptor binding assay, rat anterior pituitary membrane homogenates; conditions: for Ki: competition with [His1,125I-Tyr10,Nle27]hGH-RH(1–32)NH2; for R.A. (relative affinity compared to Standard antagonist): ratio of Ki values
T1 construct: from tissue; host or cells: anterior pituitary of male Sprague-Dawley rats, crude membrane homogenates
T1 sequence (Q02644 23-464): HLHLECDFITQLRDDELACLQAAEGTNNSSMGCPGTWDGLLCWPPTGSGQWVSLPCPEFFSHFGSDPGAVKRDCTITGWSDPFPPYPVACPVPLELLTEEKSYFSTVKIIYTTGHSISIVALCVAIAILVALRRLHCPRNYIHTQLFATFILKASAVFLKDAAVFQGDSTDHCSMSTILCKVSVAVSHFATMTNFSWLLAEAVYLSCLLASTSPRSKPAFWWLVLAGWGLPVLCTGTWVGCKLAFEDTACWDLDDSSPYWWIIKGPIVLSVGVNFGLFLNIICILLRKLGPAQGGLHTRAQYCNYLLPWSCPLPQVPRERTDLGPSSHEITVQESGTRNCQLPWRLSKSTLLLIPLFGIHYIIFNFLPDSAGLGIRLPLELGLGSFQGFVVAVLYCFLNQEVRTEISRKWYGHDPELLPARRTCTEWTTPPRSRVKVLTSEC
Procedure, shortened: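 Antagonists competed with [His^1,^125I-Tyr^10,Nle^27]hGH-RH(1–32)NH2 for binding to crude anterior pituitary membranes from male Sprague-Dawley rats, with γ-counting of the pellet. Ki came from Munson–Rodbard analysis. Relative affinity is the Ki of the test antagonist divided by the Ki of standard [Ac-Tyr^1,D-Arg^2]hGH-RH(1–29)NH2.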

[2] = tested on: GH release stimulated by hGH-RH(1–29)NH2; experiment: In vivo inhibition of serum GH response in rats; parameters: species or system rat; conditions: for Inhibition of the GH release stimulated by hGH-RH(1–29)NH2 (in words): 80 μg/kg i.v., rats
Procedure, shortened: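 Male Sprague-Dawley rats (200–250 g) under Nembutal received antagonist at 80 μg/kg i.v., then GH-RH(1–29)NH2 at 3 μg/kg after 5, 15, 30 or 60 min; controls received vehicle (5.5% mannitol). GH was measured by RIA before antagonist and 5 min after GH-RH, and inhibition was calculated as […].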

[3] = tested on: Estrogen independent MXT mouse mammary tumors; experiment: MXT mouse mammary tumors in BDF mice; format: in vivo; conditions: for Tumor weights: day 18; for Number of surviving mice: groups of 10
Description: Estrogen independent MXT tumors were transplanted sc. to female BDF mice. One day after transplantation, the mice were divided into groups of 10 animals each, and the treatment was started. The mice in groups 1, 2, 3, and 4 received single injections daily of various GH-RH antagonists sc. at 20 μg dose per day for 18 days. In groups 5 and 6, the peptides were administered by Alzet osmotic pumps releasing a daily amount of 20 μg peptide. Tumors were measured regularly, and tumor volume was calculated. The mice were sacrificed on day 18 and tumor weights were measured.

[4] = antagonist 80 μg/kg i.v. 5 min before GH-RH
[5] = antagonist 80 μg/kg i.v. 15 min before GH-RH
[6] = antagonist 80 μg/kg i.v. 15 min before GH-RH 3 μg/kg
[7] = antagonist 80 μg/kg i.v. 30 min before GH-RH
[8] = antagonist 80 μg/kg i.v. 30 min before GH-RH 3 μg/kg
[9] = antagonist 80 μg/kg i.v. 60 min before GH-RH
[10] = antagonist 80 μg/kg i.v. 60 min before GH-RH 3 μg/kg
[11] = rGH=GHblood1/GHblood0, antagonist 80 μg/kg i.v. 5 min before GH-RH 3 μg/kg
[12] = Alzet osmotic pump, 20 μg daily
[13] = single daily sc. injections, 20 μg per day

Row | SMILES | Ki [1] [nM] | R.A. (relative affinity compared to Standard antagonist) [1] | Inhibition of the GH release stimulated by hGH-RH(1–29)NH2 (in words) [2] | Relative inhibition % of GH response [2, 4] [%] | Relative inhibition % of GH response [2, 5] [%] | GH response mean ± S.E.M. [2, 6] | Relative inhibition % of GH response [2, 7] [%] | GH response mean ± S.E.M. [2, 8] | Relative inhibition % of GH response [2, 9] [%] | GH response mean ± S.E.M. [2, 10] | GH response mean ± S.E.M. [2, 11] | Tumor volume (mm^3) On day 14 [3, 12] | Tumor volume (mm^3) On day 18 [3, 12] | Tumor weights [3, 12] [mg] | Number of surviving mice [3, 12] | Tumor volume (mm^3) On day 14 [3, 13] | Tumor volume (mm^3) On day 18 [3, 13] | Tumor weights [3, 13] [mg] | Number of surviving mice [3, 13]
1 | CCCC[C@H](NC(=O)[C@@H](NC(=O)[C@H](CC(=O)O)NC(=O)[C@H](CCC(N)=O)NC(=O)[C@H](CC(C)C)NC(=O)[C@H](CC(C)C)NC(=O)[C@H](CCCCN)NC(=O)[C@H](CCCNC(=N)N)NC(=O)[C@H](C)NC(=O)[C@H](CO)NC(=O)[C@H](CC(C)C)NC(=O)[C@H](CCC(N)=O)NC(=O)[C@H](CC)NC(=O)[C@H](CC(C)C)NC(=O)[C@@H](NC(=O)[C@H](CCCCN)NC(=O)[C@H](CCCNC(=N)N)NC(=O)[C@H](Cc1ccc(O)cc1)NC(=O)[C@H](CCCNC(=N)N)NC(=O)[C@H](CC(N)=O)NC(=O)[C@@H](NC(=O)[C@H](Cc1ccc(Cl)cc1)NC(=O)[C@@H](NC(=O)[C@H](C)NC(=O)[C@H](CC(=O)O)NC(=O)[C@@H](CCCNC(=N)N)NC(=O)[C@H](Cc1ccc(O)cc1)NC(=O)Cc1ccccc1)[C@@H](C)CC)[C@@H](C)O)C(C)C)[C@@H](C)CC)C(=O)N[C@H](CCCNC(=N)N)C(=O)N[C@@H](CCCCNC(=N)N)C(N)=O [Peptide 1, [PhAc^0, D-Arg^2, Phe(pCl)^6, Arg^9, Abu^15, Nle^27, D-Arg^28, Har^29]hGH-RH(1–29)NH2] (PhAc-Y[dR]DAI[Phe(4-Cl)]TNRYRKVL[Abu]QLSARKLLQDI[Nle][dR][hArg]-NH2) | 0.044 | 67 | strong and long-lasting inhibition | 95 | 68 | 1.87 ± 0.13 | 64 | 1.97 ± 0.16 | −8 | 3.89 ± 0.65 | 1.13 ± 0.13 | 1329 ± 327** mm^3 | 3403 ± 584** mm^3 | 4810 ± 645 | 7 | 2924 ± 654 mm^3 | 4373 ± 381** mm^3 | 6964 ± 676 | 6
2 | CCCC[C@H](NC(=O)[C@@H](NC(=O)[C@H](CC(=O)O)NC(=O)[C@H](CCC(N)=O)NC(=O)[C@H](CC(C)C)NC(=O)[C@H](CC(C)C)NC(=O)[C@H](CCCCN)NC(=O)[C@H](CCCNC(=N)N)NC(=O)[C@H](C)NC(=O)[C@H](CO)NC(=O)[C@H](CC(C)C)NC(=O)[C@H](CCC(N)=O)NC(=O)[C@H](CC)NC(=O)[C@H](CC(C)C)NC(=O)[C@@H](NC(=O)[C@H](CCCCN)NC(=O)[C@H](CCCNC(=N)N)NC(=O)[C@H](Cc1ccc(OC)cc1)NC(=O)[C@H](CCCCNC(=N)N)NC(=O)[C@H](CC(N)=O)NC(=O)[C@@H](NC(=O)[C@H](Cc1ccc(Cl)cc1)NC(=O)[C@@H](NC(=O)[C@H](C)NC(=O)[C@H](CC(=O)O)NC(=O)[C@@H](CCCNC(=N)N)NC(=O)[C@H](Cc1ccc(O)cc1)NC(=O)Cc1ccccc1)[C@@H](C)CC)[C@@H](C)O)C(C)C)[C@@H](C)CC)C(=O)N[C@H](CCCNC(=N)N)C(=O)N[C@@H](CCCCNC(=N)N)C(N)=O [Peptide 3, [PhAc^0, D-Arg^2, Phe(pCl)^6, Har^9, Tyr(Me)^10, Abu^15, Nle^27, D-Arg^28, Har^29]hGH-RH(1–29)NH2] (PhAc-Y[dR]DAI[Phe(4-Cl)]TN[hArg]Y(Me)RKVL[Abu]QLSARKLLQDI[Nle][dR][hArg]-NH2) | 0.068 | 43 | strong and long-lasting inhibition | 68 | 61 | 3.63 ± 0.80 | 41 | 4.89 ± 0.95 | 34 | 5.36 ± 0.63 | 3.01 ± 0.41 | 1688 ± 220** mm^3 | 4272 ± 295** mm^3 | 5939 ± 453 | 8 | 1902 ± 349** mm^3 | 3465 ± 607** mm^3 | 5266 ± 906 | 8
